From PubChem BioAssay (NCI) come the findings set out here.

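Step 1: Grow cells in 96-well plates. Step 2: Expose to compound for 48 hours at 5 concentrations. Step 3: Interpolate endpoints linearly; if unreached, use highest concentration. GI50 is the concentration that inhibits growth by half. TGI: concentration producing complete growth inhibition.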

Experiment in all cases: NCI anticancer screen, dose series, 48 h
Test [1] has as its system UO-31 renal.
For test [2], the system named is A549 NSCLC.
The test system of test [3] is UACC-62 melanoma.
Test [4] deals with IGROV1 ovarian.
Test [5] concerns HOP-92 NSCLC.
In test [6] the test system is CAKI-1 renal.
In test [7] the test system is LOX IMVI melanoma.
The subject of test [8] is MALME-3M melanoma.
Test [9] has as its system CCRF-CEM leukemia.
Test [10] has as its system DU-145 prostate.

With `CN(C)C(=O)Oc1c(-c2ccccc2)c(=O)n2c3ccccc3n3c(=O)n(C)c(=O)c1c23`, the TGI in [1], in test [2], in test [3], in [4], in test [5] and in test [6] was > 100 µM each time. Further, the TGI in test [7] and in test [8] was > 100 µM each time.
With `COC(=O)c1nn(C(=N)c2ccc(Cl)cc2)c2c1CCC2`, the TGI in [1], in test [9], in [2], in [3], in test [4] and in test [5] was > 100 µM throughout. The TGI in [6], in test [7] and in test [8] was > 100 µM in each case.
As for `O=[N+]([O-])c1ccc(C=NC23CC4CC(CC(C4)C2)C3)cc1`, the TGI in [1], in test [9], in test [3], in [4], in test [5] and in [6] was > 100 µM each time. Besides, the TGI in test [7] and in [8] was > 100 µM throughout.
In the case of `Cc1ccc(C(=O)CC2=Nc3nnc(CCCCCCCc4nnc5n4C(=O)C(CC(=O)c4ccc(C)cc4)=N5)n3C2=O)cc1`, the TGI in test [1], in [9], in test [2], in test [3], in [4] and in test [6] was > 100 µM in each case. Besides, the TGI in test [7] and in test [8] was > 100 µM each time.
On to `O=C(CCC(=O)C1CCC/C1=N/O)Nc1ccc(Cl)cc1` (centres undefined), for which the TGI in test [1], in [9], in test [2], in test [3], in test [4] and in test [5] was > 100 µM throughout. Moreover, the TGI in test [6] and in test [8] was > 100 µM each time.
`Cc1cccc2c(O)cc(=O)oc12`: the TGI in [1], in [9], in test [2], in [3], in test [4] and in [7] was > 100 µM each time. In test [8], the TGI was > 100 µM.
As to `O=NN(CCCl)C(=O)NC1CCC(CC2CCC(NC(=O)N(CCCl)N=O)CC2)CC1` (centres undefined), the TGI in test [1] is 99.9 µM; in test [9] it was 50.7 µM; in test [2] it was > 100 µM; in test [4] it was > 67.8 µM; in test [5], > 76.6 µM; in [6] it was > 100 µM. The TGI in test [7] was 26.4 µM; in [8], > 70.4 µM.
As for `O=C1/C(=C/c2ccc(Br)cc2)CCC/C1=C\c1ccc(Br)cc1`, the TGI in [1] was 24.7 µM; in test [9], 24.4 µM; in [2], 35.3 µM; in [3], 39.9 µM; in [4], 38.7 µM; in test [6], > 100 µM. In test [8], the TGI is 51 µM.
In the case of `NNC(=O)C(=O)N/N=C(\CCC(=O)Nc1ccc(Cl)cc1)Cc1nc2ccccc2s1`, the TGI was > 100 µM in test [1]; 77.1 µM in test [9]; > 100 µM in test [2]; 54.3 µM in [3]; 51.3 µM in [4]; > 100 µM in test [5]. The TGI in test [6] is > 100 µM; in test [7], 67.5 µM; in test [8], > 100 µM.
In the case of `Cn1c(=O)c2/c(n(C)c1=O)=N\C=c1\c(=O)n(C)c(=O)n(C)\c1=N\C=2`, the TGI in test [1], in test [9], in [2], in [3], in test [4] and in [5] was > 100 µM throughout. Also, the TGI in test [6] and in test [8] was > 100 µM in each case.
As for `OCCN1CCN(CC/C=C2/c3ccccc3Sc3ccc(Cl)cc32)CC1`, the TGI in test [1] stood at 27.3 µM; in [9], 23.6 µM; in [2] it was 29.9 µM; in test [3] it was 6.78 µM; in test [4] it was 28.6 µM; in test [5], 20.9 µM. Further, the TGI came to 24.4 µM in test [6], 21.8 µM in test [7] and 13.1 µM in [8].
As to `N.N.O=P([O-])([O-])C1(P(=O)([O-])[O-])CCCCCN1.[Pt+2]`, the GI50 in test [1], in test [9], in [2], in test [3], in test [4] and in test [5] was > 100 µM each time. Further, the GI50 in [6], in [7] and in test [8] was > 100 µM in each case. Moreover, the TGI in [1], in test [9], in test [2], in [3], in test [4] and in test [5] was > 100 µM each time. In addition, the TGI in test [6], in [7] and in test [8] was > 100 µM in each case.
With `CCC[CH2][Sn]1([CH2]CCC)[O]CC(C)[O]1` (centres undefined), the GI50 in [1] is 1.54 µM; in [9], 0.314 µM; in test [2], 9.72 µM; in test [3] it was 1.31 µM; in test [4], 1.88 µM; in test [5], 1.16 µM. The GI50 is 0.24 µM in test [6], 1.23 µM in [7] and 0.544 µM in test [8]. In addition, the TGI in [1] amounted to 3.1 µM; in test [9], 0.97 µM; in test [2], 21.8 µM; in test [3], 2.91 µM; in test [4] it was 3.94 µM; in test [5], 2.52 µM. In addition, the TGI in test [6] worked out at 1.23 µM; in test [7], 2.66 µM; in [8] it was 2.22 µM.
In the case of `CC(=O)[O-].O=C([CH-]C(=O)c1ccccc1)c1ccccc1.O=C([CH-]C(=O)c1ccccc1)c1ccccc1.[Sm+3]`, the GI50 in test [1] was 3.79 µM; in test [2] it was 6.11 µM; in test [3], 3.73 µM; in test [4], 5.92 µM; in test [5], 4.96 µM; in [6], 3.57 µM. The results for the GI50 in test [7] and in [8] were 7.01 µM and 4.08 µM, respectively. Also, the TGI turned out to be 12.5 µM in test [1]; 29.5 µM in test [2]; 19.8 µM in [3]; 45.1 µM in test [4]; 19.6 µM in [5]; 15.9 µM in test [6]. Further, the TGI in test [7] is 21.7 µM; in test [8] it was 34 µM.
Take `O=C(O)/C(=C\c1ccncc1)c1cccc2ccccc12`: the TGI in [9], in test [2], in test [10], in [4], in [5] and in test [7] was > 100 µM in each case. In addition, the TGI in test [8] is > 100 µM.
Turning to `C[C@]12CCC(=O)C=C1CC[C@@H]1C2CC[C@]2(C)c3nn(-c4ccccc4)nc3CC12` (some centres undefined), the TGI in [1], in test [9], in test [2], in test [3], in test [4] and in test [5] was > 100 µM throughout. Further, the TGI in [7] and in test [8] was > 100 µM throughout.
Regarding `CC(=O)[CH-]C(C)=O.CC(=O)[CH-]C(C)=O.CC[O-].CC[O-].[Ti+4]`, the GI50 in test [1], in test [9], in test [2], in test [3], in test [4] and in test [5] was > 100 µM each time. Moreover, the GI50 in [6], in test [7] and in test [8] was > 100 µM in each case. The TGI in test [1], in test [9], in test [2], in [3], in test [4] and in [5] was > 100 µM in each case. For the same compound, the TGI in test [6], in [7] and in test [8] was > 100 µM throughout.
For the compound `O=C(CCCCC(=O)N/N=C\c1ccccc1O)N/N=C\c1ccccc1O`, the GI50 was 1.29 µM in [9]; 5.22 µM in test [10]; 2.5 µM in [3]; 3.49 µM in test [4]; 11.3 µM in test [5]; 2.3 µM in [7]. Besides, the TGI in test [9], in [10], in test [3], in test [4], in test [5] and in test [7] was > 100 µM in each case.
Regarding `CCc1cccc(C)c1NC(=O)CC1C(=O)Nc2ccccc2S1(=O)=O` (centres undefined), the TGI came out at 27.7 µM in test [1]; 41.6 µM in [9]; 35.2 µM in test [2]; 41.1 µM in [3]; 35.2 µM in [4]; 31.8 µM in test [5]. Further, the TGI turned out to be 31.2 µM in test [6], 27.3 µM in test [7] and 33 µM in test [8].
Take `CC(=O)N/C(=C\c1ccc(Cc2nc3c([nH]2)C(=O)c2ccccc2C3=O)cc1)c1nc2c([nH]1)C(=O)c1ccccc1C2=O`: the TGI in test [1], in test [9], in test [2], in [4], in [5] and in test [6] was > 100 µM throughout. Besides, the TGI in test [7] and in test [8] was > 100 µM in each case.
In the case of `O=C(/C=C\c1cccc2ccccc12)c1cccc2ccccc12`, the TGI in test [1] is 27.4 µM; in test [9], 8.97 µM; in [2], 36.5 µM; in test [3] it was 27.8 µM; in test [4], 25.9 µM; in test [6] it was 32.4 µM. In addition, the figures for the TGI in [7] and in [8] were 18 µM and 36.1 µM, respectively. The GI50 in [9] is 2.28 µM; in test [7], 4.42 µM.
As to `CCN(CC)CC(=N)N(CC)c1ccccc1`, the TGI in test [1], in [9], in [2], in test [3], in [4] and in test [5] was > 100 µM each time. The TGI in test [6], in [7] and in test [8] was > 100 µM in each case.
Take `Cn1cccc1/C=C/c1cc(Br)c(/C=C/c2cccn2C)cc1Br`: the TGI amounted to 48 µM in test [1]; 62.2 µM in [9]; 39.1 µM in [2]; 43.1 µM in test [3]; 53.2 µM in test [4]; 39.5 µM in test [5]. Besides, the TGI was 39.7 µM in [6], 56.4 µM in test [7] and 31.2 µM in test [8].
For the compound `O=C(CC/C(CC(=O)c1ccc(Br)cc1)=N\O)Nc1ccc(Cl)c(Cl)c1`, the TGI in test [1], in test [9], in test [2], in [3], in [4] and in test [5] was > 100 µM each time. In addition, the TGI in test [7] and in [8] was > 100 µM in each case.
As for `CCN(CC)CCNC(=O)c1cccc2nc3ccccc3nc12`, the TGI in [1] is > 71.7 µM; in test [2], > 89.1 µM; in test [3], 45.9 µM; in test [4] it was > 100 µM; in test [5], > 73.4 µM; in [6] it was > 100 µM. For the same compound, the figures for the TGI in test [7] and in [8] were 29.5 µM and 24.6 µM, respectively.
As for `CN(C)CC/C(=N\Nc1ccc(Cl)cc1Cl)c1ccccc1`, the TGI in test [1] came out at 10.5 µM; in test [9] it was 31.2 µM; in test [2] it was 29.6 µM; in test [3], 27.7 µM; in test [4], 22.8 µM; in [7], 28 µM. For the same compound, the TGI in test [8] is 49.7 µM.
Regarding `CC(=O)[CH-]C(=O)c1ccccc1.CC(=O)[CH-]C(=O)c1ccccc1.CC[O-].O=C1c2ccccc2C(=O)c2c1ccc(O)c2[O-].[Ti+4]`, the TGI in test [1] was 86.9 µM; in [9], 56.6 µM; in test [2], > 100 µM; in test [3], > 100 µM; in test [4], > 100 µM; in test [5], > 100 µM. For the same compound, the TGI in test [6] is > 100 µM; in test [7] it was > 100 µM; in [8], 61 µM. The GI50 in [8] was 25.6 µM.
